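Values below derive from 48-hour exposures of cells grown in 96-well plates, with endpoints linearly interpolated between the two concentrations bracketing the appropriate inhibition level. At the GI50, growth is halved.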 Active and inactive are the calls of the source. No stated cut-off is given here; in the data, active = GI50 up to about 1.1 µM and inactive = higher.
Experiments:
Test in all cases: NCI anticancer screen, dose series, 48 h
U-251 = system: U-251
UACC-62 = system: UACC-62
RPMI-8226 = system: RPMI-8226
NCI-H23 = system: NCI-H23
MOLT-4 = system: MOLT-4
PC-3 = system: PC-3
CAKI-1 = system: CAKI-1
SF-295 = system: SF-295
HT-29 = system: HT-29
OVCAR-5 = system: OVCAR-5
A498 = system: A498
IGROV-1 = system: IGROV-1
SK-MEL-2 = system: SK-MEL-2
HL-60 = system: HL-60
SF-268 = system: SF-268
SK-OV-3 = system: SK-OV-3
ACHN = system: ACHN
NCI/ADR-RES = system: NCI/ADR-RES
SK-MEL-5 = system: SK-MEL-5
UACC-257 = system: UACC-257

Row | Compound | GI50 (U-251) | GI50 (UACC-62) | GI50 (RPMI-8226) | GI50 (NCI-H23) | GI50 (MOLT-4) | GI50 (PC-3) | GI50 (CAKI-1) | GI50 (SF-295) | GI50 (HT-29) | GI50 (OVCAR-5) | GI50 (A498) | GI50 (IGROV-1) | GI50 (SK-MEL-2) | GI50 (HL-60) | GI50 (SF-268) | GI50 (SK-OV-3) | GI50 (ACHN) | GI50 (NCI/ADR-RES) | GI50 (SK-MEL-5) | GI50 (UACC-257)
1 | COC(=O)C[C@H](COCc1ccccc1)NC(=O)C[C@H](COCc1ccccc1)NC(=O)OC(C)(C)C | 27.9 µM (inactive) | 36.6 µM (inactive) | 39.5 µM (inactive) | 35.3 µM (inactive) | 56 µM (inactive) | 26.9 µM (inactive) | 29.7 µM (inactive) | 34.1 µM (inactive) | 30 µM (inactive) | 33.8 µM (inactive) | 27.1 µM (inactive) | 33.7 µM (inactive) | 37.2 µM (inactive) | > 100 µM (inactive) | 20 µM (inactive) | 23.2 µM (inactive) | 38.6 µM (inactive) | 21.8 µM (inactive) | 45.8 µM (inactive) | –
2 | O=c1[nH]nc(-c2ccccc2)n1/N=C/c1ccco1 | > 100 µM (inactive) | 83.2 µM (inactive) | – | > 100 µM (inactive) | > 100 µM (inactive) | > 100 µM (inactive) | > 100 µM (inactive) | > 100 µM (inactive) | > 100 µM (inactive) | > 100 µM (inactive) | > 100 µM (inactive) | > 100 µM (inactive) | > 100 µM (inactive) | > 100 µM (inactive) | > 100 µM (inactive) | > 100 µM (inactive) | > 100 µM (inactive) | > 100 µM (inactive) | > 100 µM (inactive) | > 100 µM (inactive)
3 | CSC(=S)N/N=C(\C)c1ccc(S(=O)(=O)N(C)c2ccccc2)cc1 | 24.7 µM (inactive) | 43.2 µM (inactive) | 27.8 µM (inactive) | 19.1 µM (inactive) | 19 µM (inactive) | 19.3 µM (inactive) | 50.5 µM (inactive) | 12.8 µM (inactive) | 26.1 µM (inactive) | > 100 µM (inactive) | 89.7 µM (inactive) | 3.5 µM (inactive) | 35.3 µM (inactive) | 6.5 µM (inactive) | 9.44 µM (inactive) | 59.2 µM (inactive) | 22.6 µM (inactive) | 28.8 µM (inactive) | – | 33.7 µM (inactive)
4 | CC(C)CNC(=O)Cn1c2c(c3ccccc31)CCCC2 | – | 50.1 µM (inactive) | 40.6 µM (inactive) | > 100 µM (inactive) | 0.743 µM (active) | 58.5 µM (inactive) | 79.3 µM (inactive) | 35.8 µM (inactive) | > 100 µM (inactive) | > 100 µM (inactive) | 22.2 µM (inactive) | 14.9 µM (inactive) | > 100 µM (inactive) | 34 µM (inactive) | 37.5 µM (inactive) | 23.7 µM (inactive) | 33 µM (inactive) | 59.7 µM (inactive) | 64.7 µM (inactive) | > 100 µM (inactive)
5 | COc1cccc(-c2cc(=O)c3cc(N4CCCCC4)ccc3[nH]2)c1 | < 0.0147 µM (active) | < 0.01 µM (active) | < 0.01 µM (active) | 0.0204 µM (active) | 0.024 µM (active) | < 0.0129 µM (active) | < 0.01 µM (active) | 0.0119 µM (active) | < 0.0129 µM (active) | – | 0.0188 µM (active) | 0.0397 µM (active) | 0.521 µM (active) | < 0.01 µM (active) | 0.16 µM (active) | 0.0316 µM (active) | < 0.0186 µM (active) | 0.02 µM (active) | < 0.01 µM (active) | > 100 µM (inactive)
6 | CC[N+](CC)(CC)/C(=N\S(=O)(=O)c1ccc(Cl)cc1)[N-]S(=O)(=O)c1cc(C)c(Cl)cc1S | 43.1 µM (inactive) | – | 47.3 µM (inactive) | 85.9 µM (inactive) | 2.51 µM (inactive) | 55.8 µM (inactive) | > 100 µM (inactive) | 47 µM (inactive) | 41.7 µM (inactive) | 58.2 µM (inactive) | 41.9 µM (inactive) | > 100 µM (inactive) | > 100 µM (inactive) | 53.8 µM (inactive) | > 100 µM (inactive) | 62.8 µM (inactive) | > 100 µM (inactive) | > 100 µM (inactive) | > 100 µM (inactive) | > 100 µM (inactive)
7 | O=C(O)c1cc2cc(OCc3ccccc3)ccc2[nH]1 | > 100 µM (inactive) | > 100 µM (inactive) | > 100 µM (inactive) | > 100 µM (inactive) | > 100 µM (inactive) | > 100 µM (inactive) | > 100 µM (inactive) | > 100 µM (inactive) | – | > 100 µM (inactive) | 87.5 µM (inactive) | > 100 µM (inactive) | 61.7 µM (inactive) | > 100 µM (inactive) | > 100 µM (inactive) | > 100 µM (inactive) | > 100 µM (inactive) | > 100 µM (inactive) | > 100 µM (inactive) | 5.06 µM (inactive)
